# Assay results taken from the NIST ThermoML archive (doi:10.1021/acs.jced.5b00627).
# Numbers after ± are expanded uncertainties.
# Key:
# [1] = mn = molality of the nth substance listed, in mol/kg; details: 100 kPa, Liquid; for viscosity: Capillary tube (Ostwald / Ubbelohde) method; for speed of sound: Frequency=3 MHz, Sing-around technique in a fixed-path interferometer; for mass density: Vibrating tube method
# [2] = Crystal; DTA
compound,measurement,setting,value
C[S+](C)[O-] [dimethyl sulfoxide] + COc1cc(-c2cc(-c3ccc(O)cc3)[nH]c(=O)c2C#N)ccc1O,viscosity,"[1]; 298.15 K, m2 = 0",1.814 ± 0.33 mPa·s
same,speed of sound,"[1]; 298.15 K, m2 = 0",1484.8 ± 1.3 m/s
same,mass density,"[1]; 298.15 K, m2 = 0",1095.28 ± 1 kg/m3
same,viscosity,"[1]; 308.15 K, m2 = 0",1.472 ± 0.27 mPa·s
same,speed of sound,"[1]; 308.15 K, m2 = 0",1450.9 ± 1.3 m/s
same,mass density,"[1]; 308.15 K, m2 = 0",1085.23 ± 1 kg/m3
same,viscosity,"[1]; 318.15 K, m2 = 0",1.176 ± 0.21 mPa·s
same,speed of sound,"[1]; 318.15 K, m2 = 0",1417.4 ± 1.3 m/s
same,mass density,"[1]; 318.15 K, m2 = 0",1075.19 ± 1 kg/m3
C[S+](C)[O-] [dimethyl sulfoxide] + COc1cc(-c2cc(-c3ccccc3O)[nH]c(=O)c2C#N)ccc1O,viscosity,"[1]; 298.15 K, m2 = 0",1.814 ± 0.33 mPa·s
same,speed of sound,"[1]; 298.15 K, m2 = 0",1484.8 ± 1.3 m/s
same,mass density,"[1]; 298.15 K, m2 = 0",1095.28 ± 1 kg/m3
same,viscosity,"[1]; 308.15 K, m2 = 0",1.472 ± 0.27 mPa·s
same,speed of sound,"[1]; 308.15 K, m2 = 0",1450.9 ± 1.3 m/s
same,mass density,"[1]; 308.15 K, m2 = 0",1085.23 ± 1 kg/m3
same,viscosity,"[1]; 318.15 K, m2 = 0",1.176 ± 0.21 mPa·s
same,speed of sound,"[1]; 318.15 K, m2 = 0",1417.4 ± 1.3 m/s
same,mass density,"[1]; 318.15 K, m2 = 0",1075.19 ± 1 kg/m3
COc1cc(-c2cc(-c3ccc(Cl)cc3)[nH]c(=O)c2C#N)ccc1O + C[S+](C)[O-],viscosity,"[1]; 298.15 K, m1 = 0.01",1.954 ± 0.35 mPa·s
same,viscosity,"[1]; 298.15 K, m1 = 0.02",1.993 ± 0.36 mPa·s
same,viscosity,"[1]; 298.15 K, m1 = 0.04",2.037 ± 0.37 mPa·s
same,viscosity,"[1]; 298.15 K, m1 = 0.06",2.081 ± 0.38 mPa·s
same,viscosity,"[1]; 298.15 K, m1 = 0.08",2.129 ± 0.39 mPa·s
same,viscosity,"[1]; 298.15 K, m1 = 0.1",2.172 ± 0.39 mPa·s
same,speed of sound,"[1]; 298.15 K, m1 = 0.01",1486.1 ± 1.3 m/s
same,speed of sound,"[1]; 298.15 K, m1 = 0.02",1487.2 ± 1.3 m/s
same,speed of sound,"[1]; 298.15 K, m1 = 0.04",1488.4 ± 1.3 m/s
same,speed of sound,"[1]; 298.15 K, m1 = 0.06",1489.6 ± 1.3 m/s
same,speed of sound,"[1]; 298.15 K, m1 = 0.08",1490.5 ± 1.3 m/s
same,speed of sound,"[1]; 298.15 K, m1 = 0.1",1491.1 ± 1.3 m/s
same,mass density,"[1]; 298.15 K, m1 = 0.01",1096.42 ± 1 kg/m3
same,mass density,"[1]; 298.15 K, m1 = 0.02",1097.3 ± 1 kg/m3
same,mass density,"[1]; 298.15 K, m1 = 0.04",1098.53 ± 1 kg/m3
same,mass density,"[1]; 298.15 K, m1 = 0.06",1099.79 ± 1 kg/m3
same,mass density,"[1]; 298.15 K, m1 = 0.08",1100.99 ± 1 kg/m3
same,mass density,"[1]; 298.15 K, m1 = 0.1",1102.29 ± 1 kg/m3
same,viscosity,"[1]; 308.15 K, m1 = 0.01",1.545 ± 0.28 mPa·s
same,viscosity,"[1]; 308.15 K, m1 = 0.02",1.571 ± 0.28 mPa·s
same,viscosity,"[1]; 308.15 K, m1 = 0.04",1.614 ± 0.29 mPa·s
same,viscosity,"[1]; 308.15 K, m1 = 0.06",1.655 ± 0.3 mPa·s
same,viscosity,"[1]; 308.15 K, m1 = 0.08",1.699 ± 0.31 mPa·s
same,viscosity,"[1]; 308.15 K, m1 = 0.1",1.73 ± 0.31 mPa·s
same,speed of sound,"[1]; 308.15 K, m1 = 0.01",1452.4 ± 1.3 m/s
same,speed of sound,"[1]; 308.15 K, m1 = 0.02",1453.4 ± 1.3 m/s
same,speed of sound,"[1]; 308.15 K, m1 = 0.04",1454.7 ± 1.3 m/s
same,speed of sound,"[1]; 308.15 K, m1 = 0.06",1455.9 ± 1.3 m/s
same,speed of sound,"[1]; 308.15 K, m1 = 0.08",1456.7 ± 1.3 m/s
same,speed of sound,"[1]; 308.15 K, m1 = 0.1",1457.6 ± 1.3 m/s
same,mass density,"[1]; 308.15 K, m1 = 0.01",1086.43 ± 1 kg/m3
same,mass density,"[1]; 308.15 K, m1 = 0.02",1087.47 ± 1 kg/m3
same,mass density,"[1]; 308.15 K, m1 = 0.04",1088.83 ± 1 kg/m3
same,mass density,"[1]; 308.15 K, m1 = 0.06",1089.98 ± 1 kg/m3
same,mass density,"[1]; 308.15 K, m1 = 0.08",1091.08 ± 1 kg/m3
same,mass density,"[1]; 308.15 K, m1 = 0.1",1092.32 ± 1 kg/m3
same,viscosity,"[1]; 318.15 K, m1 = 0.01",1.264 ± 0.23 mPa·s
same,viscosity,"[1]; 318.15 K, m1 = 0.02",1.294 ± 0.23 mPa·s
same,viscosity,"[1]; 318.15 K, m1 = 0.04",1.324 ± 0.24 mPa·s
same,viscosity,"[1]; 318.15 K, m1 = 0.06",1.355 ± 0.25 mPa·s
same,viscosity,"[1]; 318.15 K, m1 = 0.08",1.391 ± 0.25 mPa·s
same,viscosity,"[1]; 318.15 K, m1 = 0.1",1.427 ± 0.26 mPa·s
same,speed of sound,"[1]; 318.15 K, m1 = 0.01",1418.9 ± 1.3 m/s
same,speed of sound,"[1]; 318.15 K, m1 = 0.02",1419.9 ± 1.3 m/s
same,speed of sound,"[1]; 318.15 K, m1 = 0.04",1421 ± 1.3 m/s
same,speed of sound,"[1]; 318.15 K, m1 = 0.06",1422.2 ± 1.3 m/s
same,speed of sound,"[1]; 318.15 K, m1 = 0.08",1423.2 ± 1.3 m/s
same,speed of sound,"[1]; 318.15 K, m1 = 0.1",1424.5 ± 1.3 m/s
same,mass density,"[1]; 318.15 K, m1 = 0.01",1076.43 ± 1 kg/m3
same,mass density,"[1]; 318.15 K, m1 = 0.02",1077.19 ± 1 kg/m3
same,mass density,"[1]; 318.15 K, m1 = 0.04",1078.52 ± 1 kg/m3
same,mass density,"[1]; 318.15 K, m1 = 0.06",1079.89 ± 1 kg/m3
same,mass density,"[1]; 318.15 K, m1 = 0.08",1080.99 ± 1 kg/m3
same,mass density,"[1]; 318.15 K, m1 = 0.1",1082.35 ± 1 kg/m3
COc1cc(-c2cc(-c3ccccc3)[nH]c(=O)c2C#N)ccc1O + C[S+](C)[O-],viscosity,"[1]; 298.15 K, m1 = 0.01",1.876 ± 0.34 mPa·s
same,viscosity,"[1]; 298.15 K, m1 = 0.02",1.916 ± 0.35 mPa·s
same,viscosity,"[1]; 298.15 K, m1 = 0.04",1.976 ± 0.36 mPa·s
same,viscosity,"[1]; 298.15 K, m1 = 0.06",2.02 ± 0.37 mPa·s
same,viscosity,"[1]; 298.15 K, m1 = 0.08",2.063 ± 0.37 mPa·s
same,viscosity,"[1]; 298.15 K, m1 = 0.1",2.107 ± 0.38 mPa·s
same,speed of sound,"[1]; 298.15 K, m1 = 0.01",1485.9 ± 1.3 m/s
same,speed of sound,"[1]; 298.15 K, m1 = 0.02",1486.8 ± 1.3 m/s
same,speed of sound,"[1]; 298.15 K, m1 = 0.04",1488 ± 1.3 m/s
same,speed of sound,"[1]; 298.15 K, m1 = 0.06",1489.1 ± 1.3 m/s
same,speed of sound,"[1]; 298.15 K, m1 = 0.08",1490.3 ± 1.3 m/s
same,speed of sound,"[1]; 298.15 K, m1 = 0.1",1491 ± 1.3 m/s
same,mass density,"[1]; 298.15 K, m1 = 0.01",1096.02 ± 1 kg/m3
same,mass density,"[1]; 298.15 K, m1 = 0.02",1096.69 ± 1 kg/m3
same,mass density,"[1]; 298.15 K, m1 = 0.04",1097.59 ± 1 kg/m3
same,mass density,"[1]; 298.15 K, m1 = 0.06",1098.59 ± 1 kg/m3
same,mass density,"[1]; 298.15 K, m1 = 0.08",1099.69 ± 1 kg/m3
same,mass density,"[1]; 298.15 K, m1 = 0.1",1100.84 ± 1 kg/m3
same,viscosity,"[1]; 308.15 K, m1 = 0.01",1.525 ± 0.28 mPa·s
same,viscosity,"[1]; 308.15 K, m1 = 0.02",1.562 ± 0.28 mPa·s
same,viscosity,"[1]; 308.15 K, m1 = 0.04",1.603 ± 0.29 mPa·s
same,viscosity,"[1]; 308.15 K, m1 = 0.06",1.638 ± 0.3 mPa·s
same,viscosity,"[1]; 308.15 K, m1 = 0.08",1.668 ± 0.3 mPa·s
same,viscosity,"[1]; 308.15 K, m1 = 0.1",1.697 ± 0.31 mPa·s
same,speed of sound,"[1]; 308.15 K, m1 = 0.01",1451.9 ± 1.3 m/s
same,speed of sound,"[1]; 308.15 K, m1 = 0.02",1452.8 ± 1.3 m/s
same,speed of sound,"[1]; 308.15 K, m1 = 0.04",1453.9 ± 1.3 m/s
same,speed of sound,"[1]; 308.15 K, m1 = 0.06",1455 ± 1.3 m/s
same,speed of sound,"[1]; 308.15 K, m1 = 0.08",1456 ± 1.3 m/s
same,speed of sound,"[1]; 308.15 K, m1 = 0.1",1456.8 ± 1.3 m/s
same,mass density,"[1]; 308.15 K, m1 = 0.01",1086.02 ± 1 kg/m3
same,mass density,"[1]; 308.15 K, m1 = 0.02",1086.78 ± 1 kg/m3
same,mass density,"[1]; 308.15 K, m1 = 0.04",1087.93 ± 1 kg/m3
same,mass density,"[1]; 308.15 K, m1 = 0.06",1088.74 ± 1 kg/m3
same,mass density,"[1]; 308.15 K, m1 = 0.08",1089.59 ± 1 kg/m3
same,mass density,"[1]; 308.15 K, m1 = 0.1",1090.64 ± 1 kg/m3
same,viscosity,"[1]; 318.15 K, m1 = 0.01",1.242 ± 0.23 mPa·s
same,viscosity,"[1]; 318.15 K, m1 = 0.02",1.276 ± 0.23 mPa·s
same,viscosity,"[1]; 318.15 K, m1 = 0.04",1.319 ± 0.24 mPa·s
same,viscosity,"[1]; 318.15 K, m1 = 0.06",1.345 ± 0.24 mPa·s
same,viscosity,"[1]; 318.15 K, m1 = 0.08",1.37 ± 0.25 mPa·s
same,viscosity,"[1]; 318.15 K, m1 = 0.1",1.41 ± 0.26 mPa·s
same,speed of sound,"[1]; 318.15 K, m1 = 0.01",1418.1 ± 1.3 m/s
same,speed of sound,"[1]; 318.15 K, m1 = 0.02",1419.1 ± 1.3 m/s
same,speed of sound,"[1]; 318.15 K, m1 = 0.04",1420.5 ± 1.3 m/s
same,speed of sound,"[1]; 318.15 K, m1 = 0.06",1421.6 ± 1.3 m/s
same,speed of sound,"[1]; 318.15 K, m1 = 0.08",1422.6 ± 1.3 m/s
same,speed of sound,"[1]; 318.15 K, m1 = 0.1",1423.7 ± 1.3 m/s
same,mass density,"[1]; 318.15 K, m1 = 0.01",1076.08 ± 1 kg/m3
same,mass density,"[1]; 318.15 K, m1 = 0.02",1076.69 ± 1 kg/m3
same,mass density,"[1]; 318.15 K, m1 = 0.04",1077.85 ± 1 kg/m3
same,mass density,"[1]; 318.15 K, m1 = 0.06",1078.84 ± 1 kg/m3
same,mass density,"[1]; 318.15 K, m1 = 0.08",1079.75 ± 1 kg/m3
same,mass density,"[1]; 318.15 K, m1 = 0.1",1080.75 ± 1 kg/m3
COc1cc(-c2cc(-c3ccc(Cl)cc3)[nH]c(=O)c2C#N)ccc1O,Normal melting temperature,[2],328.34 ± 1.8 °C
